# Experimental data taken from US20240123079A1 (Seagen Inc., priority 2021, published 2024).
# Tests used:
# [1] = tested on: MOLM-13; test: Cancer cell direct cytotoxicity assay (CellTiter-Glo), MOLM-13; type: cell-based; settings: Homo sapiens; MOLM-13, 96 h, free compound; read-out: Compound X50
# Experimental: Bystander activity of ADCs was evaluated using Renca cancer cells and THP1-Dual™ cells (InvivoGen) which contain an IRF-Lucia luciferase reporter. Cells were cultured in RPMI-1640 (Gibco) with 10% heat-inactivated fetal bovine serum, Pen-Strep (100 U/ml-100 μg/ml, Gibco), HEPES (10 mM, Gibco), sodium pyruvate (1 mM, Gibco), MEM non-essential amino acids (1×, Gibco), GlutaMAX (1×, Gibco), and beta-mercaptoethanol (55 μM, Gibco). Renca cells were plated in a 96-well flat bottom tissue culture-treated clear polystyrene plate (Corning Costar #3596) at 50,000 cells per well in 100 μL. On the day following the initial plating, 50,000 THP1-Dual™ cells were added to each well with the indicated concentration of ADC in a total volume of 200 μL. Supernatant was harvested at 48 hours post addition of the THP1-Dual™ cells. To measure Lucia reporter signal, 10 μL of supernatant was combined with 40 μL of QUANTI-Luc™ Luminescence assay reagent (Invivogen PN: rep-qlc1) in a 96-well clear flat bottom tissue culture-treated black polystyrene plate (Corning Costar PN: 3603) and read on a Perkin Elmer Envision plate reader. In some experiments, HEK 293T cells engineered to express a murine protein typically expressed by immune cells (target antigen C— an immune cell antigen) were plated as above instead of Renca tumor cells. Cancer Cell Direct Cytotoxicity Assay
# Cancer cells were counted and plated in 40 μL complete growth media in 384-well, white-walled tissue culture treated plates (Corning). Cell plates were incubated at 37° C. and with 5% CO2 overnight to allow the cells to equilibrate. Stock solutions containing ADCs or free drugs were serially diluted in RPMI-1640+20% fetal bovine serum (FBS). 10 μL of each concentration were then added to each cell plate in duplicate. Cells were then incubated at 37° C. and with 5% CO2 for 96 hours, upon which, the cell plates were removed from the incubator and allowed to cool to room temperature for 30 minutes prior to analysis. […] The luminescence of the samples was measured using an EnVision Multimode plate reader (Perkin Elmer, Waltham, MA). […]
# [2] = In vivo cytokine assay, plasma of Renca tumor-bearing mice; parameters: species or system mouse; IFNg production in plasma / IL-1b production in plasma / IL-6 production in plasma / IL12p70 production in plasma / IP10 production in plasma / MIP1a production in plasma / MIP1b production in plasma / TNFa production in plasma: unit not given here
# Experimental: Cytokines were measured in mouse plasma harvested at 3, 6, 24, or 48 hours after treatment with compounds or ADCs using a Milliplex MAP mouse cytokine/chemokine magnetic bead panel assay kit (MCYTOMAG-70k custom 11-plex kit: MCP1, MIP1α, MIP1β, TNFα, IFNγ, IL-10, IL-12p70, IL-6, IL-1β, IP10, RANTES) and analyzed using a Luminex™ MAGPIX™ Instrument System. Values that were outside of the standard curve range (<3.2 or […]) were excluded from calculation of the mean values.
structure (smiles),measurement,setting,value
CCn1nc(C)cc1C(=O)Nc1nc2cc(C(N)=O)cc(OC)c2n1C/C=C/Cn1c(NC(=O)c2cc(C)nn2CC)nc2cc(C(N)=O)cc(OCCCNC)c21 [Compound 12a],IC50,[1],87 nM
same,IFNg production in plasma,"[2]; 0.2 mg/kg, dose #1, 3 h",<3.2
same,IL12p70 production in plasma,"[2]; 0.2 mg/kg, dose #1, 3 h",<3.2
same,IL-1b production in plasma,"[2]; 0.2 mg/kg, dose #1, 3 h",0.7
same,IL-6 production in plasma,"[2]; 0.2 mg/kg, dose #1, 3 h",780.0
same,IL-10 production in plasma,"[2]; 0.2 mg/kg, dose #1, 3 h",15.6
same,IP10 production in plasma,"[2]; 0.2 mg/kg, dose #1, 3 h",1989.6
same,MCP-1 production in plasma,"[2]; 0.2 mg/kg, dose #1, 3 h",333.3
same,MIP1a production in plasma,"[2]; 0.2 mg/kg, dose #1, 3 h",10.3
same,MIP1b production in plasma,"[2]; 0.2 mg/kg, dose #1, 3 h",727.2
same,RANTES production in plasma,"[2]; 0.2 mg/kg, dose #1, 3 h",<3.2
same,TNFa production in plasma,"[2]; 0.2 mg/kg, dose #1, 3 h",9.1
same,IFNg production in plasma,"[2]; 0.2 mg/kg, dose #1, 6 h",4.6
same,IL12p70 production in plasma,"[2]; 0.2 mg/kg, dose #1, 6 h",<3.2
same,IL-1b production in plasma,"[2]; 0.2 mg/kg, dose #1, 6 h",0.7
same,IL-6 production in plasma,"[2]; 0.2 mg/kg, dose #1, 6 h",266.1
same,IL-10 production in plasma,"[2]; 0.2 mg/kg, dose #1, 6 h",<3.2
same,IP10 production in plasma,"[2]; 0.2 mg/kg, dose #1, 6 h",8985.4
same,MCP-1 production in plasma,"[2]; 0.2 mg/kg, dose #1, 6 h",7790.8
same,MIP1a production in plasma,"[2]; 0.2 mg/kg, dose #1, 6 h",101.9
same,MIP1b production in plasma,"[2]; 0.2 mg/kg, dose #1, 6 h",670.7
same,RANTES production in plasma,"[2]; 0.2 mg/kg, dose #1, 6 h",130.3
same,TNFa production in plasma,"[2]; 0.2 mg/kg, dose #1, 6 h",8.1
same,IFNg production in plasma,"[2]; 0.2 mg/kg, dose #1, 24 h",<3.2
same,IL12p70 production in plasma,"[2]; 0.2 mg/kg, dose #1, 24 h",<3.2
same,IL-1b production in plasma,"[2]; 0.2 mg/kg, dose #1, 24 h",3.2
same,IL-6 production in plasma,"[2]; 0.2 mg/kg, dose #1, 24 h",4.1
same,IL-10 production in plasma,"[2]; 0.2 mg/kg, dose #1, 24 h",<3.2
same,IP10 production in plasma,"[2]; 0.2 mg/kg, dose #1, 24 h",257.9
same,MCP-1 production in plasma,"[2]; 0.2 mg/kg, dose #1, 24 h",53.0
same,MIP1a production in plasma,"[2]; 0.2 mg/kg, dose #1, 24 h",<3.2
same,MIP1b production in plasma,"[2]; 0.2 mg/kg, dose #1, 24 h",<3.2
same,RANTES production in plasma,"[2]; 0.2 mg/kg, dose #1, 24 h",3.2
same,TNFa production in plasma,"[2]; 0.2 mg/kg, dose #1, 24 h",3.2
same,IFNg production in plasma,"[2]; 0.2 mg/kg, dose #1, 48 h",<3.2
same,IL12p70 production in plasma,"[2]; 0.2 mg/kg, dose #1, 48 h",<3.2
same,IL-1b production in plasma,"[2]; 0.2 mg/kg, dose #1, 48 h",0.7
same,IL-6 production in plasma,"[2]; 0.2 mg/kg, dose #1, 48 h",5.6
same,IL-10 production in plasma,"[2]; 0.2 mg/kg, dose #1, 48 h",<3.2
same,IP10 production in plasma,"[2]; 0.2 mg/kg, dose #1, 48 h",172.8
same,MCP-1 production in plasma,"[2]; 0.2 mg/kg, dose #1, 48 h",56.8
same,MIP1a production in plasma,"[2]; 0.2 mg/kg, dose #1, 48 h",10.3
same,MIP1b production in plasma,"[2]; 0.2 mg/kg, dose #1, 48 h",<3.2
same,RANTES production in plasma,"[2]; 0.2 mg/kg, dose #1, 48 h",<3.2
same,TNFa production in plasma,"[2]; 0.2 mg/kg, dose #1, 48 h",4.3
same,IFNg production in plasma,"[2]; 0.2 mg/kg, dose #2, 6 h",16.5
same,IL12p70 production in plasma,"[2]; 0.2 mg/kg, dose #2, 6 h",<3.2
same,IL-1b production in plasma,"[2]; 0.2 mg/kg, dose #2, 6 h",2.7
same,IL-6 production in plasma,"[2]; 0.2 mg/kg, dose #2, 6 h",410.9
same,IL-10 production in plasma,"[2]; 0.2 mg/kg, dose #2, 6 h",1.2
same,IP10 production in plasma,"[2]; 0.2 mg/kg, dose #2, 6 h",>10000
same,MCP-1 production in plasma,"[2]; 0.2 mg/kg, dose #2, 6 h",5244.6
same,MIP1a production in plasma,"[2]; 0.2 mg/kg, dose #2, 6 h",104.9
same,MIP1b production in plasma,"[2]; 0.2 mg/kg, dose #2, 6 h",718.6
same,RANTES production in plasma,"[2]; 0.2 mg/kg, dose #2, 6 h",133.8
same,TNFa production in plasma,"[2]; 0.2 mg/kg, dose #2, 6 h",10.0
same,IFNg production in plasma,"[2]; 0.6 mg/kg, dose #1, 3 h",<3.2
same,IL12p70 production in plasma,"[2]; 0.6 mg/kg, dose #1, 3 h",<3.2
same,IL-1b production in plasma,"[2]; 0.6 mg/kg, dose #1, 3 h",0.7
same,IL-6 production in plasma,"[2]; 0.6 mg/kg, dose #1, 3 h",1899.7
same,IL-10 production in plasma,"[2]; 0.6 mg/kg, dose #1, 3 h",30.4
same,IP10 production in plasma,"[2]; 0.6 mg/kg, dose #1, 3 h",4826.2
same,MCP-1 production in plasma,"[2]; 0.6 mg/kg, dose #1, 3 h",1547.8
same,MIP1a production in plasma,"[2]; 0.6 mg/kg, dose #1, 3 h",251.5
same,MIP1b production in plasma,"[2]; 0.6 mg/kg, dose #1, 3 h",2471.0
same,RANTES production in plasma,"[2]; 0.6 mg/kg, dose #1, 3 h",20.1
same,TNFa production in plasma,"[2]; 0.6 mg/kg, dose #1, 3 h",21.0
same,IFNg production in plasma,"[2]; 0.6 mg/kg, dose #1, 6 h",18.3
same,IL12p70 production in plasma,"[2]; 0.6 mg/kg, dose #1, 6 h",3.1
same,IL-1b production in plasma,"[2]; 0.6 mg/kg, dose #1, 6 h",5.7
same,IL-6 production in plasma,"[2]; 0.6 mg/kg, dose #1, 6 h",424.0
same,IL-10 production in plasma,"[2]; 0.6 mg/kg, dose #1, 6 h",3.8
same,IP10 production in plasma,"[2]; 0.6 mg/kg, dose #1, 6 h",8828.3
same,MCP-1 production in plasma,"[2]; 0.6 mg/kg, dose #1, 6 h",12898.6
same,MIP1a production in plasma,"[2]; 0.6 mg/kg, dose #1, 6 h",137.2
same,MIP1b production in plasma,"[2]; 0.6 mg/kg, dose #1, 6 h",1050.0
same,RANTES production in plasma,"[2]; 0.6 mg/kg, dose #1, 6 h",255.0
same,TNFa production in plasma,"[2]; 0.6 mg/kg, dose #1, 6 h",15.6
same,IFNg production in plasma,"[2]; 0.6 mg/kg, dose #1, 24 h",<3.2
same,IL12p70 production in plasma,"[2]; 0.6 mg/kg, dose #1, 24 h",<3.2
same,IL-1b production in plasma,"[2]; 0.6 mg/kg, dose #1, 24 h",1.6
same,IL-6 production in plasma,"[2]; 0.6 mg/kg, dose #1, 24 h",6.1
same,IL-10 production in plasma,"[2]; 0.6 mg/kg, dose #1, 24 h",<3.2
